Assay results published in ChEMBL document CHEMBL2203126, “Diazine indole acetic acids as potent, selective, and orally bioavailable antagonists of chemoattractant receptor homologous molecule expressed on Th2 cells (CRTH2) for the treatment of allergic inflammatory diseases” (J Med Chem, 2012).
≈ marks a conversion by molar mass, not a printed value.

Columns and labels:
[1] = molecular target: T1, Prostaglandin D2 receptor 2 (Homo sapiens, UniProt Q9Y5Y4); experiment: biochemical
T1 sequence (Q9Y5Y4 whole entry): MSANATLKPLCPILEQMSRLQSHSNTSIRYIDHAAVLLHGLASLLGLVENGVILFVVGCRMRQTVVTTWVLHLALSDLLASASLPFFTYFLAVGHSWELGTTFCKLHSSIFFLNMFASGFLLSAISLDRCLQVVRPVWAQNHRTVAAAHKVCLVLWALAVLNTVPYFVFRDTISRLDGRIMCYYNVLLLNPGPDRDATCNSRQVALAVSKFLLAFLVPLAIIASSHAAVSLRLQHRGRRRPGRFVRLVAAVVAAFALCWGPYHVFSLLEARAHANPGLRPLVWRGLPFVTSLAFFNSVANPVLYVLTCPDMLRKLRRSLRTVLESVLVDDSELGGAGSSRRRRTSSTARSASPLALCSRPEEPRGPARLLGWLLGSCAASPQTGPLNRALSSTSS
Description: (§1) Displacement of [3H]PGD2 from recombinant human CRTH2 receptor expressed in CHO-K1 cells after 30 min by FRET method

in vitro [2] = conditions: human, plasma
Description: Plasma protein binding in human

[3] = Dissociation constant, pKa of the compound; type: physicochemical
[4] = Effective permeability across human Caco2 cells; type: ADME, cell-based; conditions: Caco-2, read-out: Peff
[5] = molecular target: T1, Prostaglandin D2 receptor 2; conditions: cho-k1
Description: as §1

[6] = Half life in mouse liver microsomes; type: ADME, Microsome
[7] = Oral bioavailability in mouse; type: ADME, organism-based; conditions: in vivo
[8] = Clearance in mouse; type: ADME, organism-based; conditions: in vivo
Liver microsomes = experiment: Metabolic stability in human liver microsomes; type: ADME, Microsome
Eosinophil = experiment: cells; conditions: Homo sapiens, Blood, 10 min
Description: Inhibition of eosinophil shape change in human whole blood after 10 mins by flow cytometric assay

in vitro [9] = conditions: human, Caco-2, pH 6.2
Description: Apparent permeability in human Caco2 cells at pH 6.2/7.4

in vivo [10] = conditions: rat, po, 10 mg/kg
in vivo [11] = conditions: rat, plasma, iv, 2 mg/kg
Description: Clearance in rat plasma at 2 mg/kg, iv

in vivo [12] = conditions: rat, iv, 2 mg/kg
Description: Volume of distribution at steady state in rat at 2 mg/kg, iv

in vivo [13] = conditions: rat, po, 10 mg/kg; remark: listed apart in the source
Mus musculus = species on record: Mus musculus; experiment: animal or person; conditions: Ear, po, read-out: INH
in vivo [14] = conditions: rat, iv, 2 mg/kg; remark: listed apart in the source
Description: Half life in rat at 2 mg/kg, iv

[15] = Volume of distribution at steady state in mouse at 2 mg/kg, iv; type: ADME, organism-based; parameters: dose 2 mg/kg, route intravenous; conditions: in vivo, read-out: Vdss
[16] = Oral bioavailability in mouse at 10 mg/kg; type: ADME, organism-based; conditions: in vivo
[17] = Clearance in mouse plasma at 2 mg/kg, iv; type: ADME, organism-based; parameters: dose 2 mg/kg, route intravenous
[18] = Half life in mouse at 2 mg/kg, iv; type: ADME, organism-based; parameters: dose 2 mg/kg, route intravenous; conditions: in vivo
physchem = conditions: buffer, pH 6.6
Description: Aqueous solubility of the compound at pH 6.6

[19] = Cmax in mouse at 10 mg/kg, po; type: ADME, organism-based; parameters: dose 10 mg/kg, route oral; conditions: in vivo

| SMILES | IC50 [1] | pKa [3] | further results |
| --- | --- | --- | --- |
| Cc1c(-c2nn(Cc3ccccc3)c(=O)c3ccccc23)c2cc(Cl)ccc2n1CC(=O)O | 11 nM | – | – |
| Cc1c(Cc2ccc(=O)n(Cc3ccc(F)cc3F)n2)c2ccccc2n1CC(=O)O | – | – | fraction unbound (in vitro [2]): < 0.02 |
| Cc1c(-c2nn(Cc3ccccc3)c(=O)c3ccccc23)c2ccccc2n1CC(N)=O | > 1000 nM | – | – |
| Cc1c(-c2ccc(=O)n(Cc3ccccc3)n2)c2cccc(Br)c2n1CC(=O)O | – | 3.98 | – |
| Cc1c(-c2ccc(=O)n(Cc3ccc(F)cc3)n2)c2cc(F)ccc2n1CC(=O)O | – | – | Papp [4]: 0.3 ×10⁻⁶ cm/s; IC50 [5]: 20 nM; half-life [6]: > 0.5 h; bioavailability [7]: 11%; clearance [8]: 6.9 mL/min/kg; Stability (Liver microsomes): Stable |
| Cc1c(Cc2ccc(=O)n(Cc3ccncc3F)n2)c2cc(F)ccc2n1CC(=O)O | – | – | fraction unbound (in vitro [2]): < 0.02 |
| Cc1c(-c2nn(Cc3ccccc3)c(=O)c3ccccc23)c2ccccc2n1CC(=O)NS(C)(=O)=O | > 1000 nM | – | – |
| Cc1c(-c2ccc(=O)n(Cc3ccccc3)n2)c2cc(Cl)ccc2n1CC(=O)O | 28 nM | 4.03 | – |
| Cc1c(-c2nn(Cc3ccccc3)c(=O)c3ccccc23)c2ccccc2n1CCC(=O)O | > 1000 nM | – | – |
| Cc1c(-c2nn(CCOc3ccc(Cl)cc3)c(=O)c3ccccc23)c2cc(Cl)ccc2n1CC(=O)O | 2 nM | – | Papp [4]: 0.2 ×10⁻⁶ cm/s; half-life [6]: 0.183 h; bioavailability [7]: < 1%; clearance [8]: > 90 mL/min/kg |
| Cc1c(-c2nn(Cc3ccccc3)c(=O)c3ccccc23)c2cc(F)ccc2n1CC(=O)O | 11 nM | – | – |
| Cc1c(Cc2ccc(=O)n(Cc3ccc(F)cc3F)n2)c2cc(F)cc(F)c2n1CC(=O)O | – | – | IC50 (Eosinophil): 180 nM; fraction unbound (in vitro [2]): < 0.02 |
| Cc1c(Cc2ccc(=O)n(Cc3ccc(C(C)(C)O)cc3)n2)c2cc(F)ccc2n1CC(=O)O | 5 nM | – | IC50 (Eosinophil): 13 nM; fraction unbound (in vitro [2]): < 0.02 |
| Cc1c(-c2ccc(=O)n(Cc3ccccc3)n2)c2cc(Cl)cc(F)c2n1CC(=O)O | 90 nM | 3.86 | – |
| Cc1c(-c2ccc(=O)n(Cc3ccccc3)n2)c2cc(F)ccc2n1CC(=O)O | 23 nM | 4.02 | Papp (in vitro [9]): 0.5 ×10⁻⁶ cm/s |
| Cc1c(-c2ccc(=O)n(Cc3ccccc3)n2)c2cc(Br)ccc2n1CC(=O)O | 16 nM | 4.03 | – |
| Cc1c(-c2ccc(=O)n(Cc3ccccc3)n2)c2cc(S(C)(=O)=O)ccc2n1CC(=O)O | 135 nM | 4 | – |
| Cc1c(-c2ccc(=O)n(Cc3ccccc3)n2)c2cc(F)cc(F)c2n1CC(=O)O | 76 nM | 3.85 | – |
| Cc1ccc2c(c1)c(-c1ccc(=O)n(Cc3ccccc3)n1)c(C)n2CC(=O)O | 34 nM | 4.16 | – |
| Cc1c(-c2nn(Cc3ccccc3)c(=O)c3ccccc23)c2ccccc2n1CC(=O)O | 16 nM | – | – |
| Cc1c(Cc2ccc(=O)n(Cc3ccc(C(O)(C(F)(F)F)C(F)(F)F)cc3)n2)c2cc(F)ccc2n1CC(=O)O | – | – | IC50 (Eosinophil): 57 nM; fraction unbound (in vitro [2]): < 0.02 |

| SMILES | IC50 [1] | pKa [3] | further results |
| --- | --- | --- | --- |
| Cc1c(-c2ccc(=O)n(Cc3ccccc3)n2)c2cc(Cl)cc(Cl)c2n1CC(=O)O | 1690 nM | 3.88 | – |
| Cc1c(C2=NN(Cc3ccccc3)C(=O)C3CCCCC23)c2cc(F)ccc2n1CC(=O)O (centres undefined) | 109 nM | – | – |
| Cc1c(-c2nn(Cc3ccccc3)c(=O)c3ccccc23)c2ccccc2n1CCO | > 1000 nM | – | – |
| Cc1c(-c2nn(Cc3ccccc3)c(=O)c3ccccc23)c2ccccc2n1C(C)C(=O)O (centres undefined) | > 1000 nM | – | – |
| Cc1c(CC2=NN(Cc3ccccc3)C(=O)CC2)c2cc(F)ccc2n1CC(=O)O | 16 nM | – | IC50 (Eosinophil): 4 nM; bioavailability (in vivo [10]): 28%; clearance (in vivo [11]): 13 mL/min/kg; Vd (in vivo [12]): 1.7 L/kg; Cmax (in vivo [13]): 484 ng/mL; fraction unbound (in vitro [2]): < 0.02; inhibition in vivo at 3 mg/kg (Mus musculus): 34%; half-life (in vivo [14]): 4.3 h |
| Cc1c(-c2ccc(=O)n(Cc3ccccc3)n2)c2cc(S(C)(=O)=O)cc(F)c2n1CC(=O)O | 934 nM | 3.83 | – |
| Cc1c(Cc2ccc(=O)n(Cc3ccc(C(F)(F)F)cc3)n2)c2cc(F)ccc2n1CC(=O)O | – | – | IC50 (Eosinophil): 55 nM; fraction unbound (in vitro [2]): < 0.02 |
| COc1ccc2c(c1)c(-c1ccc(=O)n(Cc3ccccc3)n1)c(C)n2CC(=O)O | 104 nM | 4.07 | – |
| Cc1c(-c2nn(Cc3ccccc3)c(=O)c3ccccc23)c2ccccc2n1CC(=O)N1CCCC1 | > 1000 nM | – | – |
| Cc1c(Cc2nn(Cc3ccccc3)c(=O)c3ccccc23)c2cc(Cl)ccc2n1CC(=O)O | 29 nM | – | – |
| Cc1c(-c2ccc(=O)n(Cc3ccccc3)n2)c2ccccc2n1CC(=O)O | 134 nM | 4.15 | – |
| Cc1c(Cc2ccc(=O)n(Cc3cc(F)c(F)cc3F)n2)c2cc(F)ccc2n1CC(=O)O | 0.8 nM | – | IC50 (Eosinophil): 10 nM; fraction unbound (in vitro [2]): < 0.02 |
| Cc1c(-c2ccc(=O)n(Cc3ccc(F)cc3F)n2)c2cc(F)ccc2n1CC(=O)O | 10 nM | – | Papp (in vitro [9]): 2.1 ×10⁻⁶ cm/s |
| Cc1c(Cc2ccc(=O)n(Cc3ccccc3)n2)c2cc(Cl)ccc2n1CC(=O)O | 15 nM | – | IC50 (Eosinophil): 15 nM; fraction unbound (in vitro [2]): < 0.02 |
| Cc1c(Cc2ccc(=O)n(Cc3ccccc3)n2)c2ccccc2n1CC(=O)O | – | – | IC50 (Eosinophil): 155 nM; fraction unbound (in vitro [2]): < 0.02 |
| Cc1c(Cc2ccc(=O)n(Cc3ccncc3)n2)c2cc(F)ccc2n1CC(=O)O | 12 nM | – | IC50 (Eosinophil): 22 nM; fraction unbound (in vitro [2]): < 0.02 |
| Cc1c(-c2ccc(=O)n(Cc3ccccc3)n2)c2cc(F)cc(S(C)(=O)=O)c2n1CC(=O)O | – | 3.83 | – |
| Cc1c(-c2ccc(=O)n(Cc3ccccc3)n2)c2cc(F)cc(Cl)c2n1CC(=O)O | 245 nM | 3.86 | – |
| Cc1c(Cc2ccc(=O)n(Cc3ccccc3)n2)c2cc(F)ccc2n1CC(=O)O | 9 nM | – | Papp (in vitro [9]): 4.3 ×10⁻⁶ cm/s |
| Cc1c(CC2=NN(Cc3ccc(F)cc3F)C(=O)CC2)c2cc(F)ccc2n1CC(=O)O | 4 nM | – | IC50 (Eosinophil): 8 nM; Vd [15]: 1.12 L/kg; bioavailability [16]: 41%; clearance [17]: 9 mL/min/kg; half-life [18]: 4 h; solubility (physchem): 954 µg/mL (≈ 2150 µM); fraction unbound (in vitro [2]): < 0.02; Cmax [19]: 1890 ng/mL |
| Cc1c(-c2nn(Cc3ccccc3)c(=O)c3ccccc23)c2ccccc2n1CC(=O)N(C)C | > 1000 nM | – | – |
